Reference: patent publication US20260218197A1, “EXTRACELLULAR VESICLE SECRETION REDUCING AGENT FOR REDUCING EXTRACELLULAR VESICLE SECRETION, AND USE OF THE SAME” (THEORIA SCIENCE INC., priority 2020, published 2026)

Legend:
[1] = tested on: colorectal cancer cells HCT116; test: Amount of secreted EVs by the NTA method; type: cell-based, human; settings: HCT116, 2.5 μmol/L, 48 hours, serine-deficient medium, compared with NC (DMSO)
Description: (§1) The cultured cancer cells were washed with phosphate buffered saline (PBS), and the medium was replaced with advanced RPMI or advanced DMEM containing the above-described antibiotic-antimycotic agent and 2 mmol/L L-glutamine (Gibco). The adjusted culture solution after the replacement was centrifuged at 2,000×g for 10 minutes to remove the cells, and the supernatant obtained was filtered through a 0.22 μm filter (Millipore). The resulting filtrate was centrifuged at 110,000×g for 70 minutes, whereby pellets containing concentrated EVs were obtained. The pellets were washed with 11 mL of PBS, further ultracentrifuged at 110,000×g for 70 minutes, and collected again.
(§2) The secreted EVs were collected and then suspended in PBS. […] An EV concentration was calculated as particles/cells in the culture solution, whereby a net EV secretion rate was obtained. […]
(§3) In a 6-well plate, 2 mL of the cancer cell suspension was seeded at 1.0×10^5 cells/well and incubated for 24 hours. […] 48 hours after the replacement, total RNA was extracted, and the expression of the gene of interest was measured by qPCR.
(§4) Colorectal cancer cells HCT116 and lung cancer cells A549 were each transfected with miR-891b. […] Then, according to the ExoScreen method described above, the amounts of the secreted EVs were measured by measuring the signal intensities. […]

lung cancer cells A549 = test: Amount of secreted EVs by the NTA method; type: cell-based, human; settings: A549, 2.5 μmol/L, 48 hours, serine-deficient medium, compared with NC (DMSO)
Description: as §1, §2, §3, §4

`Cc1cc(C)nc(NC(=S)N2CCN(Cc3ccc(C(F)(F)F)cc3)CC2)c1` [NCT-503] was tested, and the “amount of EVs in the media (NTA, relative to negative control = 1)” value [1] was “smaller” and the “amount of EVs in the media (NTA, relative to negative control = 1)” value (lung cancer cells A549) was “smaller”.
